# In ChEMBL document CHEMBL1221329, “Identification of a novel NR2B-selective NMDA receptor antagonist using a virtual screening approach” (Bioorg Med Chem Lett, 2010):
# Tests used:
# [1] = target: T1, Glutamate NMDA receptor; GRIN1/GRIN2B (Homo sapiens, UniProt Q05586+Q13224); experiment: Antagonist activity at wild type NR1/NR2B receptor expressed in Xenopus oocytes assessed as ratio of residual current induced by agonist in presence of compound to residual current induced by agonist alone at 10 uM by two-electrode voltage-clamp method; assay type: functional, cell-based; conditions: Oocyte
# [2] = Antagonist activity at NR1/NR2B NTD truncated mutant receptor expressed in Xenopus oocytes assessed as ratio of residual current induced by agonist in presence of compound to residual current induced by agonist alone at 10 uM by two-electrode voltage-clamp method; assay type: functional, Oocyte
# [3] = target: T2, Glutamate NMDA receptor; GRIN1/GRIN2A (Homo sapiens) (UniProt Q05586+Q12879); experiment: Antagonist activity at wild type NR1/NR2A receptor expressed in Xenopus oocytes assessed as ratio of residual current induced by agonist in presence of compound to residual current induced by agonist alone at 10 uM by two-electrode voltage-clamp method; assay type: functional, cell-based; conditions: Oocyte
# [4] = target: T1, Glutamate NMDA receptor; GRIN1/GRIN2B; experiment: Antagonist activity at wild type NR1/NR2B receptor expressed in Xenopus oocytes assessed as inhibition of agonist-induced current amplitude at 10 uM by two-electrode voltage-clamp method; assay type: functional, cell-based; conditions: Oocyte
# [5] = target: T1, Glutamate NMDA receptor; GRIN1/GRIN2B; experiment: Antagonist activity at wild type NR1/NR2B receptor expressed in Xenopus oocytes assessed as inhibition of agonist-induced current amplitude by two-electrode voltage-clamp method; assay type: functional, cell-based, Oocyte
# [6] = target: T1, Glutamate NMDA receptor; GRIN1/GRIN2B; experiment: Ratio of compound IC50 to ifenprodil IC50 for wild type NR1/NR2B receptor expressed in Xenopus oocytes; assay type: cell-based; conditions: Oocyte
# [7] = Antagonist activity at NR1/NR2B NTD truncated mutant receptor expressed in Xenopus oocytes assessed as inhibition of agonist-induced current amplitude at 10 uM by two-electrode voltage-clamp method; assay type: functional; conditions: Xenopus laevis, Oocyte
# [8] = target: T2, Glutamate NMDA receptor; GRIN1/GRIN2A (Homo sapiens); experiment: Antagonist activity at wild type NR1/NR2A receptor expressed in Xenopus oocytes assessed as inhibition of agonist-induced current amplitude at 10 uM by two-electrode voltage-clamp method; assay type: functional, cell-based; conditions: Oocyte
# [9] = target: T1, Glutamate NMDA receptor; GRIN1/GRIN2B; experiment: Ratio of compound IC50 to ifenprodil IC50 for wild type NR1/NR2B receptor by radioligand binding assay; assay type: protein-complex assay
SMILES,Ratio [1],Ratio [2],Ratio [3],Ratio IC50 [9],other results
COc1cc(CN2CCN(Cc3cccc(C)c3)CC2)cc(OC)c1O,0.96,0.97,0.98,,inhibition [4]: < 20%
O=C1N=C(N2CCN(c3ccc(F)cc3)CC2)S/C1=C\c1ccc(O)cc1,0.75,0.96,,,IC50 [5]: 13000 nM
O=C1N=C(N2CCN(Cc3ccccc3)CC2)S/C1=C\c1ccc(O)cc1,0.22,0.96,0.94,,IC50 [5]: 2700 nM; Ratio IC50 [6]: 10; inhibition [4]: 0.92%; inhibition at 10 µM [7]: 4%; inhibition [8]: 4%
O=C1N=C(N2CCN(Cc3ccccc3)CC2)S/C1=C/c1ccc(O)cc1,0.15,0.96,0.9,,IC50 [5]: 1800 nM; inhibition at 10 µM [7]: 6%; inhibition [8]: 6%
O=c1[nH]c2cc([S+]([O-])CCN3CCC(Cc4ccc(F)cc4)CC3)ccc2o1 (stereo unspecified),,,,0.03,
Oc1ccc(CCCCN2CCc3c([nH]c4ccccc34)C2)cc1,,,,5,
Oc1nc2cc(C#CCN3CCC(Cc4ccc(F)cc4)CC3)c[nH]c-2n1,,,,0.03,
CC(=O)Nc1ccc2c(c1)CN(Cc1ccc(Cl)cc1)CO2,0.83,0.88,0.77,,inhibition [4]: < 20%
O=C1N=C(N2CCN(Cc3ccccc3)CC2)S/C1=C\c1ccc(O)cc1O,0.18,0.92,0.92,,IC50 [5]: 1650 nM; inhibition at 10 µM [7]: 6%; inhibition [8]: 6%
O=C1N=C(N2CCN(c3ccccc3)CC2)S/C1=C/c1ccc(O)cc1,0.74,0.96,,,
C(#Cc1ccccc1)CCN1CCC(Cc2ccccc2)CC1,,,,43,
COc1cc(/C=C2\SC(N3CCN(c4ccc(C)c(Cl)c4)CC3)=NC2=O)ccc1O,0.9,0.97,,,
O=C(CN1CCc2[nH]c3ccccc3c2C1)c1c[nH]c2ccccc12,0.9,0.94,0.96,,inhibition [4]: < 20%
COc1cc(/C=C2\SC(N3CCN(c4ccc(C)cc4)CC3)=NC2=O)ccc1O,0.95,0.97,,,
COc1cc(/C=C2/SC(N3CCN(Cc4ccccc4)CC3)=NC2=O)ccc1O,0.61,0.97,,,IC50 [5]: 11000 nM
Oc1nc2cc(C#CCN3CCC(Cc4ccccc4)CC3)ccc2[nH]1,,,,0.048,
COc1cc(/C=C2\SC(Nc3cccc(Cl)c3Cl)=NC2=O)ccc1O,0.925,0.96,0.97,,inhibition [4]: < 20%
O=C1N=C(N2CCN(Cc3ccccc3)CC2)S/C1=C\c1ccccc1,0.95,0.97,,,
Oc1nc2cc(C#CCN3CCC(=Cc4ccc(F)cc4)CC3)ccc2[nH]1,,,,2.5,

SMILES,Ratio [1],Ratio [2],Ratio [3],Ratio IC50 [9],other results
Oc1ccc2[nH]c3c(c2c1)CN(CCCCc1ccccc1)CC3,,,,0.45,
Oc1ccc2c(c1)OC[C@@H](N1CCC(O)(c3ccccc3)CC1)[C@H]2O,,,,11,
COc1cc(/C=C2\SC(N3CCN(c4cccc(C)c4)CC3)=NC2=O)ccc1O,0.95,0.96,,,
N=C1/C(=C/c2ccc(O)cc2)C(=O)N=C2SC(Cc3ccc(Cl)cc3)=NN12,0.9,0.97,0.99,,inhibition [4]: < 20%
O=C1N=C(N2CCN(c3ccccc3)CC2)S/C1=C\c1ccc(O)cc1,0.75,0.96,0.88,,inhibition at 10 µM [7]: 25%; inhibition [8]: 25%
C(#Cc1ccc2[nH]ccc2c1)CN1CCC(=Cc2ccccc2)CC1,,,,140,
O=C1N=C(N2CCN(Cc3ccccc3)CC2)S/C1=C\c1ccccc1O,0.96,0.96,,,
Nc1ccc(C#CCCN2CCC(Cc3ccccc3)CC2)cc1,,,,4,
Nc1ccc(N2CCN(Cc3ccccc3Cl)CC2)cc1,0.98,0.98,0.97,,inhibition [4]: < 20%
Cn1c(O)nc2cc(C#CCN3CCC(Cc4ccccc4)CC3)ccc21,,,,560,
O=c1[nH]c2ncc(C#CCN3CCC(Cc4ccccc4)CC3)cc2o1,,,,0.45,
O=C1CNC(=O)N1CCCCCN1CCC(Cc2ccccc2)CC1,,,,440,
CCN1CCN(C2=NC(=O)/C(=C/c3ccc(O)cc3)S2)CC1,0.93,0.96,,,
Cc1nnc(SCCCN2CCC(Cc3ccccc3)CC2)s1,,,,58,
O=C1N=C(N2CCN(c3cccc(Cl)c3)CC2)S/C1=C\c1ccc(O)cc1,0.94,0.92,0.9,,
CC(=O)Nc1ccc(N2C(=O)C[C@@H](N3CCc4[nH]c5ccccc5c4C3)C2=O)cc1,0.97,0.98,0.98,,inhibition [4]: < 20%
O=C1CNC(=O)N1CCCN1CCC(Cc2ccccc2)CC1,,,,250,
CCN(CC)CCCOC(=O)c1ccc(O)cc1O,0.94,0.97,0.97,,inhibition [4]: < 20%
C[C@@H](CN1CCC(Cc2ccccc2)CC1)[C@@H](O)c1ccc(O)cc1,,,,0.3,
